Results from patent US9682993B2, “Anticancer compounds” (ST. JUDE CHILDREN'S RESEARCH HOSPITAL, priority 2012, dated 2017).
Where two headings read alike, the source gives them in different places.

How the values were obtained:
SK-MEL-2 = assay: Drug combination assay, SK-MEL-2; format: cell-based; details: for CI in SK-MEL-2 with compound 19: Combination Index at ED50, CalcuSyn 2.1, listed drug + compound 19
Procedure: (§1) Preliminary cytotoxic screenings for each drug used in drug combination assays were performed to determine their cytotoxic dose range. […] Eight concentrations were established by 1:3 serial dilutions of the single drugs and their combinations with the splicing modulators. All drug concentrations were evaluated in triplicate in 96-well cell culture plates. Assays of individual drugs and drug combinations were run on the same tissue culture plate. Cell viability was determined using the CellTiter-Glo reagent.
(§2) Luminescence data obtained from the cell viability determinations were formatted per the requirements of the analytical software (viability data range: >0 and <1). The formatted data were analyzed with the software CalcuSyn 2.1 (Biosoft, Cambridge, UK), which provides quantitative CI values for the drug interaction analyses (see ranges in Supplementary Table S2).

JeKo1 = assay: In vitro cytotoxicity analysis, JeKo1; format: cell-based; details: Homo sapiens, JeKo-1
Source text: The A549 lung cancer, WiDr colorectal cancer, MCF-7 breast cancer, PC-3 prostate cancer, and OVCAR-3 ovarian cancer cell lines were purchased from the American Type Culture Collection (ATCC, Manassas, Va.) and were maintained in growth media as recommended by the ATCC. The JeKo-1 and JVM-2 mantle cell lymphoma cell lines were purchased from the DSMZ (Brunswick, Germany) and were maintained in growth media as recommended by the vendor. The pediatric rhabdomyosarcoma Rh18 cell line was provided y Dr. P. Houghton (Ohio State University—Nationwide Children's Hospital, Columbus, Ohio) and were maintained in growth media as recommended by Dr. Houghton. All cell culture media were supplemented with L-glutamine and penicillin/streptomycin. All cells were grown under standard culture conditions in CO2 incubators, at 37° C., with 5% CO2, and 100% relative humidity.
Cell viabilities were determined by measuring the cleavage of (sodium 3′-[1-(phenylaminocarbonyl)-3,4-tetrazolium]-bis(4-methoxy-6-nitro)benzene sulfonic acid hydrate) (XTT) to a water-soluble orange formazan by mitochondrial dehydrogenase, following the manufacturer's instructions (Roche Applied Science, Indianapolis, Ind.). Briefly, cell lines were seeded at various cell densities depending on the cell type. The adherent cell lines were allowed to adhere overnight before compound addition, whereas the suspension cell lines were seeded the day of compound addition. Stock concentrations of the compounds were made in DMSO, diluted in culture media and subsequently added to the plates at various final concentrations, then incubated for 72 hours. After the incubation period, the XTT labeling reagent, containing the electron-coupling reagent, was added to each well and incubated for 4 hours. The absorbance of each well was then read at 490 nm with a reference wavelength of 690 nm using a VersaMax™ microplate reader (Sunnyvale, Calif.). Data are expressed as the percentage of growth compared to vehicle-treated cells, as calculated from absorbance and corrected for background absorbance.
Alternatively, cell lines were seeded in 100 μL cell culture medium in 96-well plates. Depending on the cell proliferation rate, cells were seeded at 4,000 to 6,000 cells/well. Suspension cell cultures were initiated with 20,000 cells/well. The cells were incubated overnight at 37° C., and then the drug treatments were started by adding 50 μL medium containing the corresponding drug dilution and DMSO. The final concentration of DMSO onto the cells was 0.5% v/v in all wells. The cells viability was determined using the CellTiter-Glo Luminescent Cell Viability Assay (Promega, Madison, Wis.). The CellTiter-Glo reagent was prepared according to the manufacturer's instructions, and then 50 μL reagent was added to each well for 1 h at rt. The luminescence was measured on an Envision Multilabel Plate Reader (PerkinElmer, Waltham, Mass.). The IC50 values were calculated from the dose-response curve analysis with GraphPad Prism 6.01 (GraphPad Software, La Jolla, Calif.) using the nonlinear regression model 4 Parameter Logistic. Nine concentrations were generated by 1:2 serial dilutions for each IC50 assay. Each drug concentration was evaluated in triplicate or quadruplicate.

[1] = system: MDM2 alternative splicing in Rh18 cells; assay: In vitro alternative splicing assay (MDM2, RT-PCR); format: cell-based; details: Rh18 cells, 8 h exposure; Table II
Procedure: Briefly, following an 8 h exposure of exponentially growing cells to drug, total RNA was isolated using TRIzol reagent (Invitrogen, Carlsbad, Calif.). Total RNA (1 μg) was used to convert the mRNA to cDNA by using random primers, Oligo(dT)16 and Omniscript Reverse Transcription Kit (Qiagen, Germantown, Md.). PCR analyses were performed using specific oligonucleotides (see Table I) and standard amplification protocols. PCR products were separated by agarose gel electrophoresis, visualized by ethidium bromide staining on an UV transilluminator, and recorded. PCR band sizes were calculated by comparing them to the standard EZ Load 100-bp PCR Molecular Ruler (BioRad Laboratories, Hercules, Calif.).

[2] = Mouse plasma stability (HPLC); format: in vitro ADME; details: mouse plasma at 37° C.
[3] = Solubility in phosphate buffered saline (HPLC); format: physicochemical; details: aqueous buffer, read-out: Buffer Soluble
[4] = system: cytotoxicity or splicing modulation; assay: Rapid onset of cytotoxicity or splicing modulation; format: cell-based; details: maximum cytotoxicity or splicing modulation within 5 hours of drug treatment
Procedure: The cell were seeded in of 100 μl of medium into 96-well plates (HeLa at 4×10^4 cell/well; SK_MEL_2 at 6×10^4 cell/well), they were allowed to attach overnight, and then treatments started by adding 50 μl of medium containing Sudemycin D6 to produce a final concentration of 1 μM and DMSO to 0.5% v/v final into the experimental well. Continuous drug treatments were run in the same plate, using concentrations of 0, 62.5, 125, 250, 500 & 1000 nM final. DMSO was added into all wells, including non-treated wells to 0.5% v/v final concentration. For wells where the drug was withdrawn, the medium was carefully aspirated after 1, 2, 3 and 4 hours after the addition of the drug, the cells were washed once with PBS and then 150 μl of fresh cell culture medium containing 0.5% v/v DMSO was added into all washed out wells. After 72 hours of the addition of drug, the cell viability was determined using CellTiter-Glo luminescent cell viability assay (Promega, Madison, Wis.), and Sudemycin D6 cytotoxicity was calculated as the percentage of cell proliferation inhibition against the control treatment DMSO.

Sk-N-AS = assay: Drug combination assay, Sk-N-AS neuroblastoma; format: cell-based; details: neuroblastoma cell line SK-NA-S; CalcuSyn 2.1
Procedure: as §1, §2

cell lines investigated = assay: Drug combination assays, cell line not stated; format: cell-based
Procedure: as §1, §2

[5] = listed drug combined with compound 19, Ineffective = drug IC50 much higher than 1 μM

SMILES: Cc1ccc(NC(=O)c2ccc(CN3CCN(C)CC3)cc2)cc1Nc1nccc(-c2cccnc2)n1 [Imatinib]
- Interaction Type (SK-MEL-2; [5]): Antagonism (1.45-3.3)

SMILES: NC(=O)NO [Hydroxyurea]
- Interaction Type (SK-MEL-2): Ineffective

SMILES: CC(/C=C/[C@@H]1C[C@]2(CO2)CC(C)(C)O1)=C\C[C@H]1OC[C@@H](NC(=O)/C=C\[C@H](C)OC(=O)N(C)C)CO1
- IC50 (JeKo1; Table III): 300 nM

SMILES: CO[C@@]12[C@H](COC(N)=O)C3=C(C(=O)C(C)=C(N)C3=O)N1C[C@@H]1N[C@@H]12 [Mitomycin C]
- Interaction Type (SK-MEL-2): Ineffective

SMILES: CC(/C=C/[C@@H]1C[C@]2(CO2)CC(C)(C)O1)=C\C[C@H]1OC[C@@H](NC(=O)/C=C\[C@H](C)OC(=O)N(C)C(C)C)CO1
- IC50 (JeKo1; Table III): 700 nM

SMILES: CC(/C=C/C1C[C@]2(CO2)CC(C)(C)O1)=C\C[C@H]1OC[C@@H](NC(=O)/C=C\[C@H](C)OC(=O)N(C)C)CO1 (stereo partly drawn)
- MDM2 Splicing Effects [1]: Yes
- IC50 (JeKo1; Table II): 300 nM
- Plasma Stability [2]: Yes (“Yes” indicates mouse plasma stability is >5 hours in mouse plasma at 37 °C as determined by HPLC.)
- solubility [3]: > 10 µM
- Rapid Onset [4]: No

SMILES: COc1cc([C@@H]2c3cc4c(cc3[C@@H](O[C@@H]3O[C@@H]5CO[C@@H](C)O[C@H]5[C@H](O)[C@H]3O)[C@H]3COC(=O)[C@H]23)OCO4)cc(OC)c1O [Etoposide]
- Interaction Type (SK-MEL-2): Ineffective

SMILES: CC(/C=C/[C@@H]1C[C@]2(CO2)CC(C)(C)O1)=C\C[C@H]1OC[C@@H](NC(=O)/C=C\[C@H](C)OC(=O)N(C)C(C)(C)C)CO1
- IC50 (JeKo1; Table III): 780 nM

SMILES: CC(/C=C/[C@@H]1C[C@]2(CO2)CC(C)(C)O1)=C\C[C@H]1OC[C@@H](NC(=O)/C=C\[C@H](C)OC(=O)NC(C)(C)C)CO1
- IC50 (JeKo1; Table III): > 1000 nM

SMILES: CC(/C=C/[C@@H]1C[C@]2(CO2)CC(C)(C)O1)=C\C[C@H]1CC[C@@H](NC(=O)/C=C\[C@H](C)OC(=O)N(C)CCN(C)C)CC1
- IC50 (JeKo1; Table II): 170 nM
- solubility [3]: > 10 µM

SMILES: COC(=O)C[C@](O)(CCC(C)(C)O)C(=O)O[C@@H]1C(OC)=C[C@]23CCCN2CCc2cc4c(cc2[C@H]13)OCO4 [Harringtonine]
- Interaction Type (SK-MEL-2; [5]): Antagonism (1.45-3.3)

SMILES: O=C(O)c1nn(Cc2ccc(Cl)cc2Cl)c2ccccc12 [Lonidamine]
- Interaction Type (SK-MEL-2; [5]): Ineffective

SMILES: COc1cccc2c1C(=O)c1c(O)c3c(c(O)c1C2=O)C[C@@](O)(C(=O)CO)C[C@@H]3O[C@H]1C[C@H](N)[C@H](O)[C@H](C)O1 [Doxorubicin]
- Interaction Type (SK-MEL-2; [5]): Ineffective

SMILES: CCCN(C)C(=O)O[C@@H](C)/C=C\C(=O)N[C@H]1CO[C@@H](C/C=C(C)/C=C/[C@@H]2C[C@]3(CO3)CC(C)(C)O2)OC1
- IC50 (JeKo1; Table III): 610 nM

SMILES: O=c1[nH]cc(F)c(=O)[nH]1 [5-Fluorouracil]
- Interaction Type (SK-MEL-2; [5]): Ineffective^a

SMILES: CC(=O)O[C@H]1C(=O)[C@@]2(C)[C@H]([C@H](OC(=O)c3ccccc3)[C@]3(O)C[C@H](OC(=O)[C@H](O)[C@@H](NC(=O)c4ccccc4)c4ccccc4)C(C)=C1C3(C)C)[C@]1(OC(C)=O)CO[C@@H]1C[C@@H]2O [Taxol]
- Interaction Type (SK-MEL-2; [5]): Antagonism (1.45-3.3)

SMILES: CC(/C=C/[C@@H]1C[C@]2(CO2)CC(C)(C)O1)=C\C[C@H]1OC[C@@H](NC(=O)/C=C\[C@H](C)OC(=O)C(C)C)CO1
- MDM2 Splicing Effects [1]: Yes
- IC50 (JeKo1; Table II): 220 nM
- Plasma Stability [2]: No
- solubility [3]: > 10 µM
- Rapid Onset [4]: No

SMILES: COc1ccc(C2=N[C@@H](c3ccc(Cl)cc3)[C@@H](c3ccc(Cl)cc3)N2C(=O)N2CCNC(=O)C2)c(OC(C)C)c1 [Nutlin-3]
- Interaction Type (SK-MEL-2; [5]): Ineffective

SMILES: CNC(=O)O[C@@H](C)/C=C\C(=O)N[C@H]1CC[C@@H](C/C=C(C)/C=C/[C@@H]2C[C@]3(CO3)CC(C)(C)O2)CC1 [drawing 208]
- MDM2 Splicing Effects [1]: Yes
- IC50 (JeKo1; Table II): 22 nM
- Plasma Stability [2]: Yes (“Yes” indicates mouse plasma stability is >5 hours in mouse plasma at 37 °C as determined by HPLC.)
- solubility [3]: > 10 µM
- Rapid Onset [4]: Yes (“Yes” indicates maximum cytotoxicity or splicing modulation is seen within 5 hours of drug treatment.)

SMILES: Cn1c(=O)n(-c2ccc(C(C)(C)C#N)cc2)c2c3cc(-c4cnc5ccccc5c4)ccc3ncc21 [BEZ 235]
- CI in SK-MEL-2 with compound 19 (SK-MEL-2): 0.21
- Interaction Type (SK-MEL-2; [5]): Strong
- drug interaction with compound 19 (Sk-N-AS): strong synergism
- drug interaction with compound 20 (Sk-N-AS): strong synergism
- drug interaction with compound 19 (panel of 23 drugs) (cell lines investigated): strongest synergy

SMILES: C/C(=C\C(=O)Nc1ccccc1C(=O)O)c1ccc2ccccc2c1 [BIBR 1532]
- Interaction Type (SK-MEL-2): Ineffective

SMILES: CNC(=O)c1cc(Oc2ccc(NC(=O)Nc3ccc(Cl)c(C(F)(F)F)c3)cc2)ccn1 [Sorafenib]
- CI in SK-MEL-2 with compound 19 (SK-MEL-2): 0.43
- drug interaction with compound 19 (Sk-N-AS): predominantly synergistic
- drug interaction with compound 19 (panel of 23 drugs) (cell lines investigated): second strongest synergistic agent

SMILES: CC(C)C[C@H](NC(=O)[C@H](Cc1ccccc1)NC(=O)c1cnccn1)B(O)O [Bortezomib]
- Interaction Type (SK-MEL-2; [5]): Antagonism (1.45-3.3)

SMILES: COc1ccc2c(c1)/C(=C/c1cnc[nH]1)C(=O)N2 [SU 9516]
- CI in SK-MEL-2 with compound 19 (SK-MEL-2): 0.83
- Interaction Type (SK-MEL-2; [5]): Antagonism (1.45-3.3)

SMILES: CC[C@@]1(O)C(=O)OCc2c1cc1n(c2=O)Cc2cc3ccccc3nc2-1 [Camptothecin]
- CI in SK-MEL-2 with compound 19 (SK-MEL-2): 0.74
- Interaction Type (SK-MEL-2; [5]): Antagonism (1.45-3.3)

SMILES: COc1cc(C2Oc3cc([C@H]4Oc5cc(O)cc(O)c5C(=O)[C@@H]4O)ccc3OC2CO)ccc1O (stereo partly drawn) [Silibinin]
- CI in SK-MEL-2 with compound 19 (SK-MEL-2): 0.89
- Interaction Type (SK-MEL-2; [5]): Moderate

SMILES: CC(/C=C/[C@@H]1C[C@]2(CO2)CC(C)(C)O1)=C\C[C@H]1CC[C@@H](NC(=O)/C=C\[C@H](C)OC(N)=O)CC1
- IC50 (JeKo1; Table II): 100 nM

SMILES: CCCCN(C)C(=O)O[C@@H](C)/C=C\C(=O)N[C@H]1CO[C@@H](C/C=C(C)/C=C/[C@@H]2C[C@]3(CO3)CC(C)(C)O2)OC1
- IC50 (JeKo1; Table III): 690 nM

SMILES: Cc1[nH]c2ccccc2c1CCNCc1ccc(/C=C/C(=O)NO)cc1 [Panobinostat]
- CI in SK-MEL-2 with compound 19 (SK-MEL-2): 0.76

SMILES: Cc1ncc(C[n+]2csc(CCO)c2C)c(=O)[nH]1 [Oxythiamine]
- Interaction Type (SK-MEL-2; [5]): Ineffective

SMILES: CCCCCCCCCCCCNC(=O)NC1CCCCC1 [NCND]
- Interaction Type (SK-MEL-2; [5]): Slightly
- cytotoxic effect of drug alone (cell lines investigated; single drug in combination assays): Neither AUDA nor NCND alone produced a cytotoxic effect
